What all share (assay type): cell-based
Test [1] relates to Methicillin-sensitive S. aureus (MTCC 737). Description: MIC, micro-dilution broth, MSSA. The settings on record: MTCC 737, read-out: MIC MSSA. The method, then:
(§1) All test compounds were assayed in a micro-dilution broth format. Stock solutions were made by serially diluting the compounds using autoclaved millipore water or broth media. The antibacterial activity of the compounds was determined against methicillin-sensitive S. aureus (MSSA), methicillin-resistant S. aureus (MRSA), vancomycin-intermediate-resistant S. aureus (VISA), vancomycin-sensitive E. faecium (VSE) and vancomycin-resistant E. faecium (VRE). Bacteria, to be tested, were grown for about 10 h in the suitable media, MSSA, MRSA and VISA were grown in yeast-dextrose broth (about 1 g of beef extract, about 2 g of yeast extract, about 5 g of peptone and about 5 g of NaCl in about 1000 mL of sterile distilled water (pH-7)). For solid media, about 5% agar was used along with above mentioned composition. VSE and VRE were cultured in brain heart infusion broth (Himedia). The bacterial samples were freeze dried and stored at −80° C. About 5 μL of these stocks were added to about 3 mL of the nutrient broth and the culture was grown for about 6 h at about 37° C. prior to the experiments. This 6 h grown culture gives about 10^9 cfu/mL and this was determined by spread plating method. The 6 h grown culture was diluted to give effective cell concentration of about 10^5 cfu/mL which was then used for determining MIC. Compounds were serially diluted, in sterile water (2 fold dilution is employed) in a way that the working concentration was about 10 μM for MSSA, MRSA, and VSE while for VRE and VISA it was about 100 μM. About 50 μL of these serial dilutions were added to the wells of 96 well plate followed by the addition of about 150 μL of bacterial solution. The plates were then incubated at about 37° C., 150 rpm in the incubator and O.D at 600 nm was recorded at an interval of about 10 h and 24 h using TECAN (Infinite series, M200 pro) Plate Reader. Each concentration had triplicate values and the whole experiment was done at least twice and the MIC value was determined by taking the average of triplicate. O. D. values for each concentration and plotting it against concentration. The data was then subjected to sigmoidal fitting. From the curve the MIC value was determined, as the point in the curve where the O. D. was similar to that of control having no bacteria.
A general note: Dilution methods test growth across graded concentrations, often in twofold steps.

Test [2] relates to Methicillin-resistant S. aureus (ATCC 33591). Description: MIC, micro-dilution broth, MRSA. The settings on record: ATCC 33591, read-out: MIC MRSA. As to the method: as §1
The subject of test [3] is Vancomycin intermediate resistant S. aureus. Description: MIC, micro-dilution broth, VISA. As to conditions: read-out: MIC VISA. As to the method: as §1
Test [4] relates to Vancomycin-sensitive E. faecium (ATCC 19634). The experiment in a line: MIC, micro-dilution broth, VSE. As to conditions: read-out: MIC VSE. As to the method:
as §1

Test [5] has as its system Vancomycin-resistant E. faecium (VanA, ATCC 51559). Description: MIC, micro-dilution broth, VRE (VanA). As to conditions: E. faecium ATCC 51559, read-out: MIC VRE (VanA). The method, then:
as §1

The test system of test [6] is Vancomycin-resistant E. faecalis (VanA, ATCC 51575). Description: MIC, micro-dilution broth, VRE (VanB). The settings on record: Enterococcus faecalis; E. faecalis ATCC 51575; read-out: MIC VRE (VanB).
Test [7] concerns methicillin-resistant S. epidermidis clinical isolate. The experiment in a line: MIC, clinical isolate of methicillin-resistant S. epidermidis. As to conditions: Staphylococcus epidermidis, read-out: MIC S. epidermidis.
Test [8] concerns methicillin-resistant S. haemolyticus clinical isolate. Description: MIC, clinical isolate of methicillin-resistant S. haemolyticus. As to conditions: Staphylococcus haemolyticus; clinical isolate, methicillin-resistant; read-out: MIC S. haemolyticus.
In test [9] the test system is methicillin-resistant S. aureus clinical isolate. The experiment in a line: MIC, clinical isolate of methicillin-resistant S. aureus. The settings on record: Staphylococcus aureus, read-out: MIC S. aureus. As to the method:
as §1

Where [10] appears, read: Enterococcus faecium, ATCC19634, ATCC 19634.

The structures appear in SMILES notation. Values after ≈ are worked out from the molar mass of the structure shown. Read-outs that look alike come from different tables or passages of the source.

As for `CCCCCCCCCCN[C@]1(C)C[C@H](OC2C(O)[C@@H](O)C(CO)O[C@@H]2Oc2c3cc4cc2Oc2ccc(cc2Cl)[C@@H](O)[C@@H](NC(=O)[C@@H](CC(C)C)NC)C(=O)N[C@@H](CC(N)=O)C(=O)N[C@H]4C(=O)N[C@H]2C(=O)N[C@H](C(=O)N[C@H](C(=O)O)c4cc(O)cc(O)c4-c4cc2ccc4O)[C@H](O)c2ccc(c(Cl)c2)O3)OC(C)[C@@H]1O` (some centres unmarked) [Compound 8], the MIC in test [1] (Staphylococcus aureus) is 0.3 µM (≈ 0.477 µg/mL); in test [2] (Staphylococcus aureus), 0.3 µM (≈ 0.477 µg/mL); in test [3] (Staphylococcus aureus, VISA), 0.32 µM (≈ 0.509 µg/mL); in test [4] (setting [10]) it was 0.2 µM (≈ 0.318 µg/mL); in test [5] (Enterococcus faecium) it was 14 µM (≈ 22.3 µg/mL); in test [6] it was 6.2 µM (≈ 9.86 µg/mL).
For `CN[C@H](CC(C)C)C(=O)N[C@H]1C(=O)N[C@@H](CC(N)=O)C(=O)N[C@H]2C(=O)N[C@H]3C(=O)N[C@H](C(=O)N[C@H](C(=O)NCCCNC(=O)[C@H](O)[C@@H](O)[C@H](O)[C@H](O)CO)c4cc(O)cc(O)c4-c4cc3ccc4O)[C@H](O)c3ccc(c(Cl)c3)Oc3cc2cc(c3O[C@H]2OC(CO)[C@H](O)C(O)C2O[C@H]2C[C@@](C)(N)[C@H](O)C(C)O2)Oc2ccc(cc2Cl)[C@H]1O` (some centres unmarked) [Compound 3], the minimal inhibitory concentration (MIC) in test [1] (Staphylococcus aureus) turned out to be 0.6 µM (≈ 1.01 µg/mL); in test [2] (Staphylococcus aureus) it was 0.7 µM (≈ 1.18 µg/mL); in test [3] (Staphylococcus aureus, VISA), 0.88 µM (≈ 1.48 µg/mL); in test [4] (setting [10]), 0.5 µM (≈ 0.842 µg/mL); in test [5] (Enterococcus faecium), 54 µM (≈ 90.9 µg/mL).
In the case of `CN[C@H](CC(C)C)C(=O)N[C@H]1C(=O)N[C@@H](CC(N)=O)C(=O)N[C@H]2C(=O)N[C@H]3C(=O)N[C@H](C(=O)N[C@H](C(=O)NCCOC4OC(CO)C(O)C(O)C4O)c4cc(O)cc(O)c4-c4cc3ccc4O)[C@H](O)c3ccc(c(Cl)c3)Oc3cc2cc(c3O[C@H]2OC(CO)[C@H](O)C(O)C2O[C@H]2C[C@@](C)(N)[C@H](O)C(C)O2)Oc2ccc(cc2Cl)[C@H]1O` (some centres unmarked) [Compound 1], the MIC in [1] (Staphylococcus aureus) is 1.4 µM (≈ 2.32 µg/mL); in [2] (Staphylococcus aureus), 1.2 µM (≈ 1.99 µg/mL); in test [3] (Staphylococcus aureus, VISA), 2.4 µM (≈ 3.97 µg/mL); in test [4] (setting [10]), 0.6 µM (≈ 0.993 µg/mL); in [5] (Enterococcus faecium) it was above 100 µM.
Take `CN[C@H](CC(C)C)C(=O)N[C@H]1C(=O)N[C@@H](CC(N)=O)C(=O)N[C@H]2C(=O)N[C@H]3C(=O)N[C@H](C(=O)N[C@H](C(=O)NCCCNCC(O)C(O)C(OC4OC(CO)C(O)C(O)C4O)C(O)CO)c4cc(O)cc(O)c4-c4cc3ccc4O)[C@H](O)c3ccc(c(Cl)c3)Oc3cc2cc(c3O[C@H]2OC(CO)[C@H](O)C(O)C2O[C@H]2C[C@@](C)(N)[C@H](O)C(C)O2)Oc2ccc(cc2Cl)[C@H]1O` (some centres unmarked) [Compound 5]: the MIC in test [1] (Staphylococcus aureus) is 1 µM (≈ 1.83 µg/mL); in test [2] (Staphylococcus aureus) it was 1 µM (≈ 1.83 µg/mL); in test [3] (Staphylococcus aureus, VISA), 1.08 µM (≈ 1.98 µg/mL); in test [4] (setting [10]) it was 0.66 µM (≈ 1.21 µg/mL); in test [5] (Enterococcus faecium) it was above 100 µM.
On to `CCCCCCCCCCCCN[C@]1(C)C[C@H](OC2C(O)[C@@H](O)C(CO)O[C@@H]2Oc2c3cc4cc2Oc2ccc(cc2Cl)[C@@H](O)[C@@H](NC(=O)[C@@H](CC(C)C)NC)C(=O)N[C@@H](CC(N)=O)C(=O)N[C@H]4C(=O)N[C@H]2C(=O)N[C@H](C(=O)N[C@H](C(=O)NCCCNC(=O)[C@H](O)[C@@H](O)[C@H](OC4OC(CO)C(O)C(O)C4O)[C@H](O)CO)c4cc(O)cc(O)c4-c4cc2ccc4O)[C@H](O)c2ccc(c(Cl)c2)O3)OC(C)[C@@H]1O` (some centres unmarked) [Compound 18], for which the MIC is 0.2 µM (≈ 0.403 µg/mL) in [1] (Staphylococcus aureus); 0.3 µM (≈ 0.604 µg/mL) in test [2] (Staphylococcus aureus); 0.22 µM (≈ 0.443 µg/mL) in test [3] (Staphylococcus aureus, VISA); 0.2 µM (≈ 0.403 µg/mL) in test [4] (setting [10]); 0.8 µM (≈ 1.61 µg/mL) in test [5] (Enterococcus faecium); 1 µM (≈ 2.01 µg/mL) in test [6]. The MIC in [7] stood at 0.35 µM (≈ 0.705 µg/mL); in test [8], 0.5 µM (≈ 1.01 µg/mL); in test [9], 0.3 µM (≈ 0.604 µg/mL).
`CN[C@H](CC(C)C)C(=O)N[C@H]1C(=O)N[C@@H](CC(N)=O)C(=O)N[C@H]2C(=O)N[C@H]3C(=O)N[C@H](C(=O)N[C@H](C(=O)NCCCNCC(O)C(O)C(OC4OC(CO)C(O)C(O)C4O)C(O)CO)c4cc(O)cc(O)c4-c4cc3ccc4O)[C@H](O)c3ccc(c(Cl)c3)Oc3cc2cc(c3O[C@H]2OC(CO)[C@H](O)C(O)C2O[C@H]2C[C@@](C)(N)[C@H](O)C(C)O2)Oc2ccc(cc2Cl)[C@H]1O` (some centres unmarked) [Compound 6]: the MIC in test [1] is recorded as 1.0 µM (≈ 1.83 µg/mL); in test [2] it was 1.0 µM (≈ 1.83 µg/mL); in [3], 0.99 µM (≈ 1.81 µg/mL); in test [4] (ATCC 19634), 0.5 µM (≈ 0.916 µg/mL); in test [5], above 100 µM.

As a reminder, the MIC is the lowest concentration found to suppress growth.

These data come from patent US20160303184A1, “VANCOMYCIN-SUGAR CONJUGATES AND USES THEREOF” (JAWAHARLAL NEHRU CENTRE FOR ADVANCED SCIENTIFIC RESEARCH …, priority 2013, published 2016).
